The text below walks through data of patent US20110184017A1, “STABLE AQUEOUS SOLUTION COMPOSITION CONTAINING SULFONAMIDE COMPOUND” (ASAHI KASEI PHARMA CORPORATION, priority 2008, published 2011).

“Also recorded” adds a separate entry of the source.

The test system of one data set is Japanese white rabbits. Briefly: Rabbit intraocular pressure reduction test. It counts as in vivo. Particulars: FIG. 1. Here is the method: In order to examine difference in the intraocular pressure reducing effect depending on a different pH of (S)-1-(4-chloro-5-isoquinolinesulfonyl)-3-(methylamino)pyrrolidine solution, the following test was performed by using Japanese white rabbits as experimental animals.
(S)-1-(4-Chloro-5-isoquinolinesulfonyl)-3-(methylamino)pyrrolidine hydrochloride obtained by the method described in International Patent Publication WO2007/026664 was dissolved in physiological saline, the solution was adjusted to pH 4, 5, 6, 7, 8 and 9 by adding sodium hydroxide, and the final concentration was adjusted to 0.5 mM. These solutions were used as (S)-1-(4-chloro-5-isoquinolinesulfonyl)-3-(methylamino)pyrrolidine solutions having different pH values.
The rabbits used were sufficiently conditioned for ophathalmic tonometry test, and used as groups each consisting of 6 animals. After a Benoxil ophthalmic solution 0.4% (an ophthalmologic local anesthesant, Santen Pharmaceutical Co., Ltd.) was applied to both eyes of each rabbit, intraocular pressure value before instillation was measured (initial intraocular pressure value, both right and left eyes) by using an ophathalmic tonometer (Model 30 Classic, Solan). […] After 2, 4, and 6 hours from the instillation, each rabbit was topically anesthetized with the an ophthalmologic local anesthesant, and intraocular pressure values of the both eyes were measured. […]

A further data set is described as follows: Photostability test. It counts as physicochemical. Particulars: aqueous solution; estimated from similar absorption spectrum. Here is the method:
In the following test, LT-120D3CJ (Nagano Science Co., Ltd.) was used as a photostability tester. Purity of (S)-1-(4-chloro-5-isoquinolinesulfonyl)-3-(methylamino)pyrrolidine in the samples of the examples and the comparative example was measured by the liquid chromatography method described in Test Example 2.
The samples of Example 5 and Comparative Example 3 were subjected to light irradiation at 5,000 lux for ten days […] at 25° C. by using a D65 daylight fluorescent lamp installed in the photostability tester. As the photostability tester, an apparatus was used that was capable of uniformly irradiating the samples with light by turning a table. The illumination was 5,000 lux, and 1,200,000 lux·hr in total was irradiated over ten days. The accumulated near-ultraviolet energy during the photostability test was 474 to 488 W·h/m^2.
2) Purities of (S)-1-(4-chloro-5-isoquinolinesulfonyl)-3-(methylamino)pyrrolidine in the solutions of the light-irradiated samples were compared with that of a sample stored at 5° C. in a dark place.

On to `CN[C@H]1CCN(S(=O)(=O)c2cccc3cncc(Cl)c23)C1` [(S)-1-(4-chloro-5-isoquinolinesulfonyl)-3-(methylamino)pyrrolidine], for which the “intraocular pressure reducing action” value is reported as “more strongly exhibited when a pH became higher in the range of pH 4 to 9; also recorded: became higher in a pH-dependent manner” in the data set on Japanese white rabbits (0.5 mM solutions adjusted to pH 4, 5, 6, 7, 8 and 9, instillation to normal rabbits, 2, 4 and 6 hours); “strongly exhibited” in the data set on Japanese white rabbits (0.5 mM solutions at pH 7 to 9, instillation to rabbits).

Turning to `N[C@H]1CCN(S(=O)(=O)c2cccc3cncc(Cl)c23)C1` [(S)-1-(4-chloro-5-isoquinolinesulfonyl)-3-aminopyrrolidine], the “photostability properties compared with the (methylamino)pyrrolidine compound” value in the data set “Photostability test” was “similar”.
